Reference: patent US5262435A, “Cholesterol lowering compounds” (Merck & Co., Inc., priority 1992, dated 1993)
pIC50: −log10 of the molar value.

Biological target: T1, squalene synthetase (Rattus norvegicus, UniProt Q02769)
T1 construct: from tissue; host or cells: rat liver microsomes (lovastatin-fed male Charles River CD rats)
T1 sequence (Q02769 1-416): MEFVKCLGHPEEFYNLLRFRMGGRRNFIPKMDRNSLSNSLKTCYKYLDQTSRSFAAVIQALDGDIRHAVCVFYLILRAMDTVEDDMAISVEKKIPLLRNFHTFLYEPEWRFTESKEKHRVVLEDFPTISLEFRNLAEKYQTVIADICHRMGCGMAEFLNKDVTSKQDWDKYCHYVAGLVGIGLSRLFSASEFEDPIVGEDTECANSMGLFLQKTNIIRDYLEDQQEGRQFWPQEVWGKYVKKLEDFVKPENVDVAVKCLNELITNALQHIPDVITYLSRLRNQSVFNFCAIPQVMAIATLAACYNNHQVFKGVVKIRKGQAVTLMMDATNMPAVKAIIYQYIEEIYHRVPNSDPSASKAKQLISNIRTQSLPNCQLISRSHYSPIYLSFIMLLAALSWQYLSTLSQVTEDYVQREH
Assay: Squalene synthetase assay (rat liver microsomes, [4-14C]farnesyl-pyrophosphate)
Type: biochemical
Conditions: rat liver microsomal protein, 30° C., 20 minutes; read-out: IC50 squalene synthetase inhibition
Experimental: The intrinsic squalene synthetase inhibitory activity of representative compounds of this invention was measured by the standard in vitro protocol described below:
Male, Charles River CD rats (120 to 150 g) were fed a diet containing 0.1% lovastatin for 4 days. The livers from these rats were homogenized in 5 volumes (ml/g) of ice cold 50 Mm HEPES (4-(2-hydroxyethyl)-1-piperazine-ethanesulfonic acid), 5 mM EDTA(ethylenediaminetetraacetic acid) pH 7.5 with a Potter-Elvehjem type tissue grinder. The homogenate was centrifuged twice at 20,000×g for 15 minutes at 4,C, discarding the pellet each time. The supernatant was then centrifuged at 100,000×g for 1 hour at 4° C. The resulting microsomal pellet was resuspended in a volume of the above homogenizing buffer equal to one-fifth the volume of the original homogenate. This microsomal preparation has a protein concentration of about 7 mg/ml. The microsomal suspensions were stored in aliquots at -70° C. Squalene synthetase activity in these aliquots is stable for at least several months. […]
This assay mix was degassed under a vacuum and flushed with N2. […] Ten ml of scintillation fluid was added to the heptane solution and radioactivity was determined by liquid scintillation counting. […]
IC50 values were determined by plotting the log of the concentration of the test compound versus the percentage inhibition. […]

pIC50: 9.02
SMILES: C=C(CC[C@@]12C[C@@H](OC(=O)/C=C/C(C)CC(C)CC)[C@@](C(=O)O)(O1)[C@](O)(C(=O)O)[C@@H](C(=O)O)O2)C(OC(C)=O)C(C)Cc1ccccc1 (stereo partly shown) [Compound A]
